Broadly, the EC50 is the concentration needed to bring the measured effect to its halfway point.

Data on 34 compounds can be found in patent US9676758B2, “1-heteroaryl-indoline-4-carboxamides as modulators of GPR52 useful for the treatment or prevention of disorders related thereto” (Arena Pharmaceuticals, Inc., priority 2015, dated 2017).

This test concerns the target T1, recombinant GPR52 (Homo sapiens, UniProt Q9Y2T5).
T1 construct: expressed in transfected cells
Kind of test: HTRF cAMP assay for direct cAMP measurement. The following applies: mean EC50; CHO-K1 or HEK293 cells stably expressing recombinant GPR52. In kind it is cell-based. The procedure:
HTRF cAMP assays were performed using commercially available assay kits according to the manufacturer's instructions (cAMP Dynamic 2 Assay Kit; #62AM4PEJ, Cisbio Bioassays, Bedford, Mass.). CHO-K1 or HEK293 cells stably expressing recombinant GPR52 were harvested and resuspended in assay buffer (PBS containing 0.5 mM IBMX and 0.1% BSA) at a density of 1.2×10^6 cells per mL. […] Test compounds were solubilized and serially diluted in DMSO using 5-fold dilutions to generate 10-point dose response curves. These serially diluted samples were then further diluted in PBS to achieve a 2× stock. The diluted compounds were transferred to triplicate assay plates (5 μL per well to achieve the 1× final assay concentration). A positive control was included in each assay run. After one-hour incubation at room temperature, 5 μL of cAMP D2 reagent diluted in lysis buffer was added to each well, followed by 5 μL of cryptate reagent. Plates were then incubated at room temperature for one hour prior to reading. Time-resolved fluorescence measurements were collected on an HTRF-capable plate reader (e.g., EnVision® (PerkinElmer, Waltham, Mass.) or PHERAstar (BMG LABTECH, Cary, N.C.)). Counts from the plate reader were fit to the cAMP standard curve included on each plate to determine the amount of cAMP in each test well. Dose-response curves were generated from the cAMP data and analyzed using a nonlinear least squares curve-fitting program to obtain EC50 values.
In general terms: TR-FRET usually uses a lanthanide donor and a delayed reading to cut background.

T1 sequence (Q9Y2T5 whole entry): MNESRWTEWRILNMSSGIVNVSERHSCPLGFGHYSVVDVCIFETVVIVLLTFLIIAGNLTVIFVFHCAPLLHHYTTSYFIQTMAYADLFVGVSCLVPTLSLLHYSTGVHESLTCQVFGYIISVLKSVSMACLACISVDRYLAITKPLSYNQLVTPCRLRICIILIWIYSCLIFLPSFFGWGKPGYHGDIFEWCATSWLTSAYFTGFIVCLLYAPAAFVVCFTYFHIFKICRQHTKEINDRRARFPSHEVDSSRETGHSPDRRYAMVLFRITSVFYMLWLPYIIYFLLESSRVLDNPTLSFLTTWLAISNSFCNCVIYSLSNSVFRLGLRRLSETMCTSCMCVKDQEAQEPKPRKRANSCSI

Turning to `COc1ccc(Cc2ccnc(N3CCc4c(C(=O)NC5CCN(CCO)CC5)cccc43)c2)cc1F` [Compound 91, 1-(4-(3-Fluoro-4-methoxybenzyl)pyridin-2-yl)-N-(1-(2-hydroxyethyl)piperidin-4-yl)indoline-4-carboxamide], the EC50 came to 0.00106 µM. `CNC(=O)c1cc(Cc2ccnc(N3CCc4c(C(N)=O)cccc43)c2)ccc1F` [Compound 59, 1-(4-(4-Fluoro-3-(methylcarbamoyl)benzyl)pyridin-2-yl)indoline-4-carboxamide]: the EC50 stood at 0.223 µM. The figure for `O=C(N[C@H]1CCOC1)c1cccc2c1CCN2c1cc(Cc2cccc(C(F)(F)F)c2)ccn1` [Compound 4, (S)-N-(Tetrahydrofuran-3-yl)-1-(4-(3-(trifluoromethyl)benzyl)pyridin-2-yl)indoline-4-carboxamide] is 0.0123 µM; for `NC(=O)c1cccc2c1CCN2c1cc(Cc2cc3ccccc3o2)ccn1` [Compound 119, 1-(4-(Benzofuran-2-ylmethyl)pyridin-2-yl)indoline-4-carboxamide] it is 0.0387 µM. As for `O=C(NCCO)c1cccc2c1CCN2c1cncc(Cc2cccc(C(F)(F)F)c2)n1` [Compound 38, N-(2-Hydroxyethyl)-1-(6-(3-(trifluoromethyl)benzyl)pyrazin-2-yl)indoline-4-carboxamide], the EC50 turned out to be 0.601 µM. The figure for `O=C(NC[C@H](O)CO)c1cccc2c1CCN2c1cc(Cc2cc(F)cc(C(F)(F)F)c2)ccn1` [Compound 31, (S)-N-(2,3-Dihydroxypropyl)-1-(4-(3-fluoro-5-(trifluoromethyl)benzyl)pyridin-2-yl)indoline-4-carboxamide] is 0.072 µM; for `O=C(NC[C@H](O)C(F)(F)F)c1cccc2c1CCN2c1cc(Cc2cc(F)c(F)c(F)c2)ccn1` [Compound 160, (S)-N-(3,3,3-Trifluoro-2-hydroxypropyl)-1-(4-(3,4,5-trifluorobenzyl)pyridin-2-yl)indoline-4-carboxamide] it is 0.292 µM; for `NC(=O)c1cccc2c1CCN2c1cc(Sc2cccc(C(F)(F)F)c2)ccn1` [Compound 30, 1-(4-(3-(Trifluoromethyl)phenylthio)pyridin-2-yl)indoline-4-carboxamide] it is 0.428 µM. Under `NC(=O)c1cccc2c1CCN2c1cc(Cc2ccc(F)c(CO)c2)ccn1` [Compound 63, 1-(4-(4-Fluoro-3-(hydroxymethyl)benzyl)pyridin-2-yl)indoline-4-carboxamide] stands 0.0365 µM; under `CC(=O)c1ccc(Cc2ccnc(N3CCc4c(C(N)=O)cccc43)c2)cc1` [Compound 55, 1-(4-(4-Acetylbenzyl)pyridin-2-yl)indoline-4-carboxamide], 0.016 µM; under `O=C(NC[C@H](O)c1cccnc1)c1cccc2c1CCN2c1cc(Cc2cc(F)c(F)c(F)c2)ccn1` [Compound 148, (R)-N-(2-Hydroxy-2-(pyridin-3-yl)ethyl)-1-(4-(3,4,5-trifluorobenzyl)pyridin-2-yl)indoline-4-carboxamide], 0.037 µM. Consider `O=C(N[C@H]1CCOC1)c1cccc2c1CCN2c1ccnc(Cc2cccc(C(F)(F)F)c2)c1` [Compound 3, (S)-N-(Tetrahydrofuran-3-yl)-1-(2-(3-(trifluoromethyl)benzyl)pyridin-4-yl)indoline-4-carboxamide], for which the EC50 is 0.0103 µM. Under `O=C(NCC1(CO)COC1)c1c(F)ccc2c1CCN2c1cc(Cc2cc(F)c(F)c(F)c2)ccn1` [Compound 155, 5-Fluoro-N-((3-(hydroxymethyl)oxetan-3-yl)methyl)-1-(4-(3,4,5-trifluorobenzyl)pyridin-2-yl)indoline-4-carboxamide] stands 0.0559 µM; under `N#CCCNC(=O)c1cccc2c1CCN2c1cc(Cc2cccc(C(F)(F)F)c2)ccn1` [Compound 20, N-(2-Cyanoethyl)-1-(4-(3-(trifluoromethyl)benzyl)pyridin-2-yl)indoline-4-carboxamide], 0.0363 µM.

On to `O=C(N[C@H]1CCOC1)c1cccc2c1CCN2c1cccc(Cc2cccc(C(F)(F)F)c2)n1` [Compound 2, (S)-N-(Tetrahydrofuran-3-yl)-1-(6-(3-(trifluoromethyl)benzyl)pyridin-2-yl)indoline-4-carboxamide], for which the EC50 amounted to 0.106 µM.

As to `CNC(=O)c1cccc2c1CCN2c1cncc(Cc2cccc(C(F)(F)F)c2)c1` [Compound 9, N-Methyl-1-(5-(3-(trifluoromethyl)benzyl)pyridin-3-yl)indoline-4-carboxamide], the concentration giving a half-maximal response (EC50) turned out to be 0.00745 µM.

For `NC(=O)c1cccc2c1CCN2c1cc(Cc2ccc3c(c2)OCCCO3)ccn1` [Compound 96, 1-(4-((3,4-Dihydro-2H-benzo[b][1,4]dioxepin-7-yl)methyl)pyridin-2-yl)indoline-4-carboxamide], the EC50 worked out at 0.212 µM.

Take `COc1ccc(Cc2ccnc(N3CCc4c3ccc(F)c4C(=O)NCCNC(C)=O)c2)cc1F` [Compound 164, N-(2-Acetamidoethyl)-5-fluoro-1-(4-(3-fluoro-4-methoxybenzyl)pyridin-2-yl)indoline-4-carboxamide]: the EC50 came to 0.0109 µM. The figure for `COc1ccc(Cc2ccnc(N3CCc4c(C(=O)NCCF)cccc43)c2)cc1F` [Compound 203, 1-(4-(3-fluoro-4-methoxybenzyl)pyridin-2-yl)-N-(2-fluoroethyl)indoline-4-carboxamide] is 0.00554 µM; for `NC(=O)c1cccc2c1CCN2c1cc(Cc2cnc3ccccc3c2)ccn1` [Compound 111, 1-(4-(Quinolin-3-ylmethyl)pyridin-2-yl)indoline-4-carboxamide] it is 0.061 µM; for `COC[C@@H](O)CNC(=O)c1cccc2c1CCN2c1ccnc(Cc2cc(F)c(F)c(F)c2)c1` [Compound 189, (S)-N-(2-Hydroxy-3-methoxypropyl)-1-(2-(3,4,5-trifluorobenzyl)pyridin-4-yl)indoline-4-carboxamide] it is 0.0219 µM. The figure for `CN(C)Cc1cccc(Cc2ccnc(N3CCc4c(C(N)=O)cccc43)c2)c1` [Compound 81, 1-(4-(3-((Dimethylamino)methyl)benzyl)pyridin-2-yl)indoline-4-carboxamide] is 3.75 µM. In the case of `CNC(=O)CCNC(=O)c1cccc2c1CCN2c1cc(Cc2cc(F)c(F)c(F)c2)ccn1` [Compound 172], the EC50 amounted to 0.018 µM. With `COC[C@@H](O)CNC(=O)c1cccc2c1CCN2c1cc(Cc2cc(F)cc(Cl)c2)ccn1` [Compound 168, (S)-1-(4-(3-Chloro-5-fluorobenzyl)pyridin-2-yl)-N-(2-hydroxy-3-methoxypropyl)indoline-4-carboxamide], the EC50 stood at 0.0316 µM. `NC(=O)c1cccc2c1CCN2c1cc(Cc2ccc(O)c(F)c2)ccn1` [Compound 97, 1-(4-(3-Fluoro-4-hydroxybenzyl)pyridin-2-yl)indoline-4-carboxamide]: the EC50 was 0.0359 µM. As for `CC(=O)c1cc(Cc2ccnc(N3CCc4c(C(=O)NCCO)cccc43)c2)ccc1F` [Compound 77, 1-(4-(3-Acetyl-4-fluorobenzyl)pyridin-2-yl)-N-(2-hydroxyethyl)indoline-4-carboxamide], the EC50 was found to be 0.0107 µM. The figure for `O=C(NCCN1CCNC1=O)c1cccc2c1CCN2c1cc(Cc2cc(F)c(F)c(F)c2)ccn1` [Compound 133, N-(2-(2-Oxoimidazolidin-1-yl)ethyl)-1-(4-(3,4,5-trifluorobenzyl)pyridin-2-yl)indoline-4-carboxamide] is 0.0183 µM; for `O=C(N[C@@H]1CCOC1=O)c1cccc2c1CCN2c1cc(Cc2cc(F)c(F)c(F)c2)ccn1` [Compound 135, (R)-N-(2-Oxotetrahydrofuran-3-yl)-1-(4-(3,4,5-trifluorobenzyl)pyridin-2-yl)indoline-4-carboxamide] it is 0.142 µM; for `O=C(Nc1cnn(CCO)c1)c1cccc2c1CCN2c1cc(Cc2cc(F)c(F)c(F)c2)ccn1` [Compound 118, N-(1-(2-Hydroxyethyl)-1H-pyrazol-4-yl)-1-(4-(3,4,5-trifluorobenzyl)pyridin-2-yl)indoline-4-carboxamide] it is 0.00974 µM.

For `COc1ccc(Cc2ccnc(N3CCc4c(C(=O)NCCOCCO)cccc43)c2)cc1F` [Compound 205, 1-(4-(3-fluoro-4-methoxybenzyl)pyridin-2-yl)-N-(2-(2-hydroxyethoxy)ethyl)indoline-4-carboxamide], the EC50 is 0.00856 µM. The figure for `Cc1cc(Cc2ccnc(N3CCc4c(C(N)=O)cccc43)c2)cnc1F` [Compound 50, 1-(4-((6-Fluoro-5-methylpyridin-3-yl)methyl)pyridin-2-yl)indoline-4-carboxamide] is 0.0174 µM. `O=C(N[C@H]1CCOC1)c1cccc2c1CCN2c1cncc(Cc2cccc(C(F)(F)F)c2)c1` [Compound 7, (S)-N-(Tetrahydrofuran-3-yl)-1-(5-(3-(trifluoromethyl)benzyl)pyridin-3-yl)indoline-4-carboxamide]: the EC50 was found to be 0.00521 µM. Under `NC(=O)c1cccc2c1CCN2c1cc(Cc2cnc(F)c(F)c2)ccn1` [Compound 49, 1-(4-((5,6-Difluoropyridin-3-yl)methyl)pyridin-2-yl)indoline-4-carboxamide] stands 0.0616 µM; under `COCC(COC)NC(=O)c1cccc2c1CCN2c1cc(Cc2cc(F)c(F)c(F)c2)ccn1` [Compound 131, N-(1,3-Dimethoxypropan-2-yl)-1-(4-(3,4,5-trifluorobenzyl)pyridin-2-yl)indoline-4-carboxamide], 0.307 µM.
